We go through 26 compounds from patent publication US12435128B2, “Method for predicting therapeutic effect of LSD1 inhibitor based on expression of INSM1” (TAIHO PHARMACEUTICAL CO., LTD., priority 2017, dated 2025).

The first test relates to HEL cells (human acute myelocytic leukemia cell lines). Briefly: Cell-growth inhibition test: HEL cells. The format is cell-based. The conditions noted are these: HEL cells; read-out: IC50 (nM), Cell-Growth Inhibition Test: HEL Cells. The protocol:
(§1) Under the following conditions, an in vitro cell-growth inhibition test was performed with respect to HEL cells (human acute myelocytic leukemia cell lines), NCI-H1417 cells (human small-cell lung cancer cell lines), and NCI-H146 cells (human small-cell lung cancer cell lines).
(§2) The cells with the Example compound or with dimethylsulfoxide alone were cultured at 37° C. in a 5% carbon-dioxide-containing incubator for 5 days (HEL cells) or 10 days (NCI-H1417 cells and NCI-H146 cells). After culture, the plate was allowed to stand at room temperature for 30 minutes, and 100 μL of the supernatant was removed from each well to leave 100 μL of the cell culture solution. To each well containing the remaining 100 μL of the cell culture solution, the same amount of CellTiter-Glo 2.0 Assay (Promega, Cat #: G9242) was added. The microplate was shaken with a plate mixer for 1 minute and then allowed to stand in a dark place for 10 minutes. Thereafter, the luminescence intensity of viable cells in each well was measured using a microplate reader (PerkinElmer, EnSpire). […] Cell growth rate(%)=T/C×100 • T: The luminescence intensity in a well to which the test compound was added (count per second) • C: The luminescence intensity in a well to which dimethylsulfoxide alone was added (count per second)
`N#Cc1ccc(-c2cc(C(=O)N3[C@@H]4CC[C@H]3C[C@H](N)C4)ccc2-c2ccc3cccnc3c2F)cc1F` [Example 105, 4-[5-[(3-exo)-3-amino-8-azabicyclo[3.2.1]octane-8-carbonyl]-2-(8-fluoro-7-quinolyl)phenyl]-2-fluoro-benzonitrile]: the IC50 was 5.74 nM. As to `Cn1ncc2cc(-c3ccc(C(=O)N4[C@@H]5CC[C@H]4C[C@H](N)C5)cc3-c3ccc(C#N)c(F)c3)c(F)cc21` [Example 24, 4-[5-[(3-exo)-3-amino-8-azabicyclo[3.2.1]octane-8-carbonyl]-2-(6-fluoro-1-methyl-indazol-5-yl)phenyl]-2-fluoro-benzonitrile], the IC50 was 3.5 nM. Still for that read-out and setting: the result for `Cc1ccc(-c2ccc(C(=O)N3C4CCC3CC(N)C4)cc2-c2ccc(C#N)c(F)c2)c(F)c1F` (stereo not drawn) [Example 144, 5′-((3-endo)-3-amino-8-azabicyclo[3.2.1]octane-8-carbonyl)-2″,3,3″-trifluoro-4″-methyl-[1,1′:2′,1″-terphenyl]-4-carbonitrile] reads 0.27 nM; that for `Cc1ccc(-c2ccc(C(=O)N3CC[C@H](N)C3)cc2-c2ccc([N+](=O)[O-])cc2)cc1` [Example 99, [(35)-3-aminopyrrolidin-1-yl]-[3-(4-nitrophenyl)-4-(p-tolyl)phenyl]methanone], 11 nM.

With `Cn1cnc2cc(-c3ccc(C(=O)N4[C@@H]5CC[C@H]4C[C@@H](N)C5)cc3-c3ccc(C#N)c(F)c3)c(F)c(F)c21` [Example 126, 4-[5-[(3-endo)-3-amino-8-azabicyclo[3.2.1]octane-8-carbonyl]-2-(6,7-difluoro-1-methyl-benzimidazol-5-yl)phenyl]-2-fluoro-benzonitrile], the IC50 came to 5.29 nM. Regarding `CN1CCOc2cc(-c3ccc(C(=O)N4C5CCC4CC(N)C5)cc3-c3ccc(C#N)c(F)c3)ccc21` (stereo not drawn) [Example 128, 4-[5-[(3-endo)-3-amino-8-azabicyclo[3.2.1]octane-8-carbonyl]-2-(4-methyl-2,3-dihydro-1,4-benzoxazin-7-yl)phenyl]-2-fluoro-benzonitrile], the IC50 was 5.7 nM.

Staying with this test, now noted: Homo sapiens, HEL, read-out: IC50 (nM), Cell-Growth Inhibition Test: HEL Cells.
As for `CN(C)c1ccc(-c2ccc(C(=O)N3CC[C@H](N)C3)cc2-c2ccc(C#N)c(F)c2)cn1` [Example 100, 4-[5-[(3S)-3-aminopyrrolidine-1-carbonyl]-2-[6-(dimethylamino)-3-pyridyl]phenyl]-2-fluoro-benzonitrile], the IC50 worked out at 12.8 nM. Still for that read-out and setting: next, `CN1CCc2cc(-c3ccc(C(=O)N4CC[C@H](N)C4)cc3-c3ccc(C#N)c(F)c3)ccc21` [Example 117, 4-[5-[(3S)-3-aminopyrrolidine-1-carbonyl]-2-(1-methylindolin-5-yl)phenyl]-2-fluoro-benzonitrile]: 5.54 nM; `Cc1ccc(-c2ccc(C(=O)N3CCC4(CNC4)C3)cc2-c2ccc(C#N)cc2)cc1` [Example 5, 4-[5-(2,7-diazaspiro[3.4]octane-7-carbonyl)-2-(p-tolyl)phenyl]benzonitrile]: 34.8 nM. Same read-out and setting: next, `N#Cc1ccc(-c2cc(C(=O)N3CC[C@H](N)C3)ccc2-c2ccc(C3(C4(O)CC4)CC3)cc2)cc1` [Example 68, 4-[5-[(3S)-3-aminopyrrolidine-1-carbonyl]-2-[4-[1-(1-hydroxycyclopropyl)cyclopropyl]phenyl]phenyl]benzonitrile]: 23.9 nM; `N#Cc1ccc(-c2cc(C(=O)N3CC[C@H](N)C3)ccc2-c2ccc(CC3(O)CC3)cc2)cc1` [Example 59, 4-[5-[(3S)-3-aminopyrrolidine-1-carbonyl]-2-[4-[(1-hydroxycyclopropyl)methyl]phenyl]phenyl]benzonitrile]: 32 nM. Same read-out and setting: the result for `CC(C)(O)Cn1ccc2cc(-c3ccc(C(=O)N4[C@H]5CC[C@@H]4[C@H](N)C5)cc3-c3ccc(C#N)c(F)c3)c(F)cc21` (single isomer, unassigned; isomer-b) [Example 171] reads 0.08 nM; that for `CC(C)(O)Cn1ccc2cc(-c3ccc(C(=O)N4CC5CNCC5C4)cc3-c3ccc(C#N)c(F)c3)c(F)c(F)c21` (centres unmarked) [Example 203, 2′-(6,7-difluoro-1-(2-hydroxy-2-methylpropyl)-1H-indol-5-yl)-3-fluoro-5′-(octahydropyrrolo[3,4-c]pyrrole-2-carbonyl)-[1,1′-biphenyl]-4-carbonitrile], 2.45 nM; that for `COCCc1ccc(-c2ccc(C(=S)N3CC[C@H](N)C3)cc2-c2ccc(C#N)c(F)c2)c(F)c1` [Example 94, 4-[5-[(3S)-3-aminopyrrolidine-1-carbothioyl]-2-[2-fluoro-4-(2-methoxyethyl)phenyl]phenyl]-2-fluoro-benzonitrile], 29.4 nM.

The test is the same for the next values; noted with them: read-out: IC50 (nM), Cell-Growth Inhibition Test: HEL Cells.
For the compound `COc1c(F)c(-c2ccc(C(=O)N3[C@@H]4CC[C@H]3C[C@@H](N)C4)cc2-c2ccc(C#N)c(F)c2)cc2cnn(CC(C)(C)O)c12` [Example 186, 5′-((3-endo)-3-amino-8-azabicyclo[3.2.1]octane-8-carbonyl)-3-fluoro-2′-(6-fluoro-1-(2-hydroxy-2-methylpropyl)-7-methoxy-1H-indazol-5-yl)-[1,1′-biphenyl]-4-carbonitrile], the half-maximal inhibitory concentration (IC50) turned out to be 6.3 nM. On to `CC(C)(O)Cn1ncc2cc(-c3ccc(C(=O)N4[C@@H]5CC[C@H]4C[C@@H](N)C5)cc3-c3ccc(C#N)c(F)c3)c(F)c(F)c21` [Example 188, 5′-((3-endo)-3-amino-8-azabicyclo[3.2.1]octane-8-carbonyl)-2′-(6,7-difluoro-1-(2-hydroxy-2-methylpropyl)-1H-indazol-5-yl)-3-fluoro-[1,1′-biphenyl]-4-carbonitrile], for which the IC50 came to 5.95 nM. On the same count and under the same terms, next, `Cn1cc(C(=O)O)c2cc(-c3ccc(C(=O)N4[C@@H]5CC[C@H]4[C@@H](N)C5)cc3-c3ccc(C#N)c(F)c3)c(F)cc21` (single isomer, unassigned) [Example 224]: 46.2 nM. The same measure, in the same setting: the result for `CC(C)(C)n1nnc2cc(-c3ccc(C(=O)N4C5CCC4CC(N)C5)cc3-c3ccc(C#N)c(F)c3)c(F)cc21` (stereo not drawn) [Example 139, 5′-((3-endo)-3-amino-8-azabicyclo[3.2.1]octane-8-carbonyl)-2′-(1-(tert-butyl)-6-fluoro-1H-benzo[d][1,2,3]triazol-5-yl)-3-fluoro-[1,1′-biphenyl]-4-carbonitrile] reads 16.9 nM; that for `CCn1nnc2cc(-c3ccc(C(=O)N4[C@@H]5CC[C@H]4C[C@H](N)C5)cc3-c3ccc(C#N)c(F)c3)c(F)cc21` [Example 160, 5′-((3-endo)-3-amino-8-azabicyclo[3.2.1]octane-8-carbonyl)-2′-(1-ethyl-6-fluoro-1H-benzo[d][1,2,3]triazol-5-yl)-3-fluoro-[1,1′-biphenyl]-4-carbonitrile], 7.03 nM. Take `Cn1nnc2cc(-c3ccc(C(=O)N4[C@@H]5CC[C@H]4C[C@@H](N)C5)cc3-c3ccc(C#N)c(F)c3)c(F)c(F)c21` [Example 145, 5′-((3-endo)-3-amino-8-azabicyclo[3.2.1]octane-8-carbonyl)-2′-(6,7-difluoro-1-methyl-1H-benzo[d][1,2,3]triazol-5-yl)-3-fluoro-[1,1′-biphenyl]-4-carbonitrile]: the half-maximal inhibitory concentration (IC50) was 1.81 nM. In the case of `CC(C)n1c(=O)sc2cc(-c3ccc(C(=O)N4C5CCC4CC(N)C5)cc3-c3ccc(C#N)c(F)c3)ccc21` (stereo not drawn) [Example 138, 5′-((3-endo)-3-amino-8-azabicyclo[3.2.1]octane-8-carbonyl)-3-fluoro-2′-(3-isopropyl-2-oxo-2,3-dihydrobenzo[d]thiazol-6-yl)-[1,1′-biphenyl]-4-carbonitrile], the IC50 stood at 0.9 nM.

The next test has as its system NCI-H1417 cells (human small-cell lung cancer cell lines). Description: Cell-growth inhibition test: NCI-H1417 cells. The format is cell-based. Particulars: Homo sapiens, NCI-H1417, read-out: IC50 (nM), Cell-Growth Inhibition Test: NCI-H1417 Cells. The protocol:
as §1, §2
On to `Cn1nnc2cc(-c3ccc(C(=O)N4CC[C@H](NC5CCC5)C4)cc3-c3ccc(C#N)c(F)c3)c(F)cc21` [Example 116, 4-[5-[(3S)-3-(cyclobutylamino)pyrrolidine-1-carbonyl]-2-(6-fluoro-1-methyl-benzotriazol-5-yl)phenyl]-2-fluoro-benzonitrile], for which the IC50 worked out at 29.5 nM. Same read-out and setting: the result for `Cn1ccc2cc(-c3ccc(C(=O)N4CC[C@H](N)C4)cc3-c3ccc(C#N)c(F)c3)c(F)cc21` [Example 134, (S)-5′-(3-aminopyrrolidine-1-carbonyl)-3-fluoro-2′-(6-fluoro-1-methyl-1H-indol-5-yl)-[1,1′-biphenyl]-4-carbonitrile] reads 0.93 nM; that for `CCC(O)(CC)Cn1ncc2cc(-c3ccc(C(=O)N4CC[C@H](N)C4)cc3-c3ccc(C#N)c(F)c3)c(F)cc21` [Example 204, (S)-5′-(3-aminopyrrolidine-1-carbonyl)-2′-(1-(2-ethyl-2-hydroxybutyl)-6-fluoro-1H-indazol-5-yl)-3-fluoro-[1,1′-biphenyl]-4-carbonitrile], 1.98 nM; that for `CC(C)(O)Cn1ccc2cc(-c3ccc(C(=O)C4CC5(CNC5)CN4)cc3-c3ccc(C#N)c(F)c3)c(F)c(F)c21` (centres unmarked) [Example 200, 2′-(6,7-difluoro-1-(2-hydroxy-2-methylpropyl)-1H-indol-5-yl)-3-fluoro-5′-(2,7-diazaspiro[3.4]octane-6-carbonyl)-[1,1′-biphenyl]-4-carbonitrile], 0.18 nM.

The test is the same for the next values; noted with them: NCI-H1417 cells; read-out: IC50 (nM), Cell-Growth Inhibition Test: NCI-H1417 Cells.
Take `N#Cc1ccc(-c2cc(C(=O)N3C4CCC3CC(N)C4)ccc2-c2ccc3cccnc3c2)cc1F` (stereo not drawn) [Example 107, 4-[5-[(3-exo)-3-amino-8-azabicyclo[3.2.1]octane-8-carbonyl]-2-(7-quinonyl)phenyl]-2-fluoro-benzonitrile]: the IC50 is 18.2 nM.

As a reminder, the IC50 is the concentration needed to halve the response being measured.
